The record followed here is publication PMC10208151 (mAbs, 2023).

This assay has as its target BMSmAb (Bristol Myers Squibb mAb, a type of IgG4). Briefly: STD NMR titration. It is filed as binding.

Regarding `OC[C@H]1O[C@@](CO)(O[C@H]2O[C@H](CO)[C@@H](O)[C@H](O)[C@H]2O)[C@@H](O)[C@@H]1O` [sucrose], the Kd (usually the concentration at which binding is half-saturated) turned out to be 67.8 mM.
